The text below walks through data of patent US9365583B2, “Substituted pyrazoles and uses thereof” (Genentech, Inc., priority 2013, dated 2016).

pKi: −log10 of the molar value.

This experiment addresses T1, N-terminally GST-tagged DLK (catalytic domain amino acid 1-520) (Homo sapiens, UniProt Q12852).
T1 construct: N-terminally GST-tagged DLK (catalytic domain amino acid 1-520); purchased Carna Bioscience
T1 sequence (Q12852 1-520): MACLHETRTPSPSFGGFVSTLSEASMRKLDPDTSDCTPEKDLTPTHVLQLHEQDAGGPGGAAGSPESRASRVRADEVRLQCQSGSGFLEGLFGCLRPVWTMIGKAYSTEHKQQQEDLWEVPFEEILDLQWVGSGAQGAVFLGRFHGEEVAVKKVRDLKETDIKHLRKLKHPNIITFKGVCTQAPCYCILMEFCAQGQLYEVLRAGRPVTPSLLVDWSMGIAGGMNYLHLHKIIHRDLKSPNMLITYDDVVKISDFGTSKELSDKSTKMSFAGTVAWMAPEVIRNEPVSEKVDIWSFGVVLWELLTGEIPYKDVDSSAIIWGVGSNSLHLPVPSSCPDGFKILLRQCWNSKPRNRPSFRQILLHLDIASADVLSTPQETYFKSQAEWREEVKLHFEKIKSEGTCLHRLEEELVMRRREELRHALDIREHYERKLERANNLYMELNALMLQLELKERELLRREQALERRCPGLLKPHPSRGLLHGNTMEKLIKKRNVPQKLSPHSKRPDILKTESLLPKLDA
Put plainly: DLK TR-FRET inhibition assay. The class given is biochemical. The settings on record: 5 nM GST-DLK, 40 nM HIS-MKK4 K131M substrate, 30 μM ATP, 60 minutes at ambient temperature. A digest of the protocol: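 Phosphorylated MKK4 was quantified by TR-FRET (Eu-labelled anti-phospho-MKK4, D2 anti-HIS; 3 h, 665 and 615 nm emission) after EDTA quench. Reactions held 5 nM GST-tagged DLK catalytic domain (1-520), 40 nM HIS-MKK4 K131M substrate, 30 μM ATP and compound (3-fold series from 20 uM), 60 min, room temperature, pH 7.5.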
In general terms: In TR-FRET formats the signal depends on donor and acceptor labels being close together.
In general, pKi refers to the negative decadic logarithm of the Ki, by convention in mol/L. The compound `CC(C)n1nc(-c2cnc(N)c(C(F)(F)F)c2)cc1[C@H]1[C@@H]2C[C@@H](N3CCN(C)C4(COC4)C3)C[C@@H]21` [compound 180, 5-(1-isopropyl-5-((1R,3s,5S,6r)-3-(5-methyl-2-oxa-5,8-diazaspiro [3.5]nonan-8-yl)bicyclo[3.1.0]hexan-6-yl)-1H-pyrazol-3-yl)-3-(trifluoromethyl)pyridin-2-amine] showed a pKi of 8.24.

The compound `CC(C)n1nc(-c2cnc3cnn([C@H](C)c4ccccn4)c3c2)cc1[C@H]1[C@@H]2C[C@@H](N3CCOCC3)C[C@@H]21` [compound 31, 4-((1R,3S,5S,6r)-6-(1-isopropyl-3-(1-((R)-1-(pyridin-2-yl)ethyl)-1H-pyrazolo[4,3-b]pyridin-6-yl)-1H-pyrazol-5-yl)bicyclo[3.1.0]hexan-3-yl)morpholine] showed a pKi of 7.10.

For the compound `Nc1ncc(-c2cc([C@H]3[C@@H]4C[C@@H](N5CCOCC5)C[C@@H]43)nn2CC2CC2)cc1OC(F)F` [compound 268, 5-(1-(cyclopropylmethyl)-3-((1R,3s,5S,6r)-3-morpholinobicyclo [3.1.0]hexan-6-yl)-1H-pyrazol-5-yl)-3-(difluoromethoxy) pyridin-2-amine], the pKi was 6.66. This pKi lies 0.44 log units lower than the previous one.

`CC(C)n1nc(-c2cnc(N)c(C(F)(F)F)c2)cc1[C@H]1[C@@H]2C[C@H](N3CCN(C)C[C@@H]3C)C[C@@H]21` [compound 242, 5-(5-((1R,3r,5S,6S)-3-((S)-2,4-dimethylpiperazin-1-yl)bicyclo [3.1.0]hexan-6-yl)-1-isopropyl-1H-pyrazol-3-yl)-3-(trifluoromethyl) pyridin-2-amine]: the pKi was 8.68.

Compound `CC(C)n1nc(-c2cnc(N)c(C(F)(F)F)c2)cc1[C@H]1[C@@H]2C[C@H](N3CCCOCC3)C[C@@H]21` [compound 100, 5-(5-((1R,3r,5S,6r)-3-(1,4-oxazepan-4-yl)bicyclo[3.1.0]hexan-6-yl)-1-isopropyl-1H-pyrazol-3-yl)-3-(trifluoromethyl)pyridin-2-amine] gave a pKi of 8.99.

`CC(C)n1nc(-c2cnc(N)c(OC(F)F)c2)cc1[C@H]1[C@@H]2C[C@@H](N3CCO[C@@H](C)C3)C[C@@H]21` [compound 75, 3-(difluoromethoxy)-5-(1-isopropyl-5-((1R,3s,5S,6S)-3-((S)-2-methylmorpholino)bicyclo[3.1.0]hexan-6-yl)-1H-pyrazol-3-yl) pyridin-2-amine]: the pKi was 9.13.

For `CC(C)n1nc(-c2cnc(N)c(OC(F)F)c2)cc1C1[C@H]2CC(N3CCOCC(F)C3)C[C@@H]12` (single isomer, unassigned) [compound 172], the pKi is 8.38.

Compound “5-(1-isopropyl-5-((1R,3s,5S,6R)- 3-((R)-2-methylmorpholino) bicyclo[3.1.0]hexan-6-yl)-1H- pyrazol-3-yl)-3-(trifluoromethoxy) pyridin-2-amine [compound 11]” had a pKi of 8.73.

`CC(C)n1nc(-c2cnc(N)c(OC(F)(F)F)c2)cc1[C@H]1[C@@H]2C[C@@H](N3CCN(C)C[C@@H]3C)C[C@@H]21` [compound 237, 5-(5-((1R,3s,5S,6S)-3-((S)-2,4-dimethylpiperazin-1-yl)bicyclo [3.1.0]hexan-6-yl)-1-isopropyl-1H-pyrazol-3-yl)-3-(trifluoro-methoxy)pyridin-2-amine]: the pKi is 8.96.

On to `CC(C)n1nc(-c2cnc(N)c(OC(F)(F)F)c2)cc1[C@H]1[C@@H]2C[C@@H](N3CC4(COC4)C3)C[C@@H]21` [compound 58, 5-(5-((1R,3s,5S,6r)-3-(2-oxa-6-azaspiro[3.3]heptan-6-yl)bicyclo [3.1.0]hexan-6-yl)-1-isopropyl-1H-pyrazol-3-yl)-3-(trifluoromethoxy)pyridin-2-amine], for which the pKi is 8.73.

`CC(C)n1nc(-c2cnc(N)c(OC(F)F)c2)cc1[C@H]1[C@@H]2C[C@@H](N3CCOC[C@H]3C)C[C@@H]21` [compound 82, 3-(difluoromethoxy)-5-(1-isopropyl-5-((1R,3s,5S,6R)-3-((R)-3-methylmorpholino)bicyclo[3.1.0]hexan-6-yl)-1H-pyrazol-3-yl) pyridin-2-amine] showed a pKi of 8.84.

Compound `CC(C)n1nc(-c2cnc(N)c(OC(F)F)c2)cc1[C@H]1[C@@H]2C[C@H](NCC(F)F)C[C@@H]21` [compound 252, 5-(5-((1R,3r,5S,6r)-3-((2,2-difluoro-ethyl)amino)bicyclo[3.1.0]hexan-6-yl)-1-isopropyl-1H-pyrazol-3-yl)-3-(difluoromethoxy) pyridin-2-amine] showed a pKi of 8.52.

In turn, `CC(C)n1nc(-c2cnc(N)c(OC(F)(F)F)c2)cc1[C@H]1[C@@H]2C[C@H](N3C[C@H]4C[C@@H]3CO4)C[C@@H]21` [compound 56, 5-(5-((1R,3r,5S,6R)-3-((1R,4R)-2-oxa-5-azabicyclo[2.2.1]heptan-5-yl)bicyclo[3.1.0]hexan-6-yl)-1-isopropyl-1H-pyrazol-3-yl)-3-(trifluoromethoxy)pyridin-2-amine] gave a pKi of 8.32.

`CCN1CCN([C@H]2C[C@@H]3[C@H](C2)[C@H]3c2cc(-c3cnc(N)c(OC(F)(F)F)c3)nn2C(C)C)CC1` [compound 14, 5-(5-((1R,3r,5S,6r)-3-(4-ethylpiperazin-1-yl)bicyclo[3.1.0]hexan-6-yl)-1-isopropyl-1H-pyrazol-3-yl)-3-(trifluoromethoxy) pyridin-2-amine] had a pKi of 8.76.

Compound `CC(C)n1nc(-c2cnc(N)c(C(F)(F)F)c2)cc1[C@H]1[C@@H]2CC(N3CC4COCC4C3)C[C@@H]21` (single isomer, unassigned) [compound 277] had a pKi of 8.64.

In turn, `COC1CN([C@@H]2C[C@@H]3[C@H](C2)[C@H]3c2cc(-c3cnc(N)c(OC(F)F)c3)nn2C(C)C)C1` [compound 62, 3-(difIuoromethoxy)-5-(1-isopropyl-5-((1R,3s,5S,6r)-3-(3-methoxy-azetidin-1-yl)bicyclo[3.1.0]hexan-6-yl)-1H-pyrazol-3-yl) pyridin-2-amine] showed a pKi of 8.56.

The compound `CO[C@H]1CCN([C@H]2C[C@@H]3[C@H](C2)[C@H]3c2cc(-c3cnc(N)c(OC(F)F)c3)nn2CC2CC2)C1` [compound 158, 5-(1-(cyclopropylmcthyl)-5-((1R,3r,5S,6S)-3-((S)-3-methoxy-pyrrolidin-1-yl)bicyclo[3.1.0]hexan-6-yl)-1H-pyrazol-3-yl)-3-(difluoromethoxy)pyridin-2-amine] showed a pKi of 8.92.

`CC(C)n1nc(-c2cnc(N)c(OC(F)F)c2)cc1[C@H]1[C@@H]2C[C@H](N3CCN4CCCC4C3)C[C@@H]21` (stereo partly drawn) [compound 260, 3-(difluoromethoxy)-5-(5-((1R,3r,5S,6r)-3-(hexahydropyrrolo [1,2-a]pyrazin-2(1H)-yl)bicyclo [3.1.0]hexan-6-yl)-1-isopropyl-1H-pyrazol-3-yl)pyridin-2-amine]: the pKi is 9.40. This pKi lies 0.48 log units higher than the previous one.

For the compound `CC(C)n1nc(-c2cnc(N)c(C(F)(F)F)c2)cc1[C@H]1[C@@H]2C[C@H](N3C[C@@H]4C[C@H]3CN4C)C[C@@H]21` [compound 200, 5-(1-isopropyl-5-((1R,3r,5S,6S)-3-((1S,4S)-5-methyl-2,5-diazabicyclo [2.2.1]heptan-2-yl)bicyclo [3.1.0]hexan-6-yl)-1H-pyrazol-3-yl)-3-(trifluoromethyl)pyridin-2-amine], the pKi was 8.70. This pKi is 0.70 log units lower than that of the compound before.

For the compound `CC(C)n1nc(-c2cnc(N)c(OC(F)(F)F)c2)cc1[C@H]1[C@@H]2C[C@H](N3C[C@@H]4C[C@H]3CN4C)C[C@@H]21` [compound 201, 5-(1-isopropyl-5-((1R,3r,5S,6S)-3-((1S,4S)-5-methyl-2,5-diazabicyclo [2.2.1]heptan-2-yl)bicyclo [3.1.0]hexan-6-yl)-1H-pyrazol-3-yl)-3-(trifluoromethoxy) pyridin-2-amine], the pKi was 8.89.

For `CC(C)n1nc(-c2cnc(N)c(C(F)(F)F)c2)cc1[C@H]1[C@@H]2C[C@H](N3CCS(=O)(=O)CC3)C[C@@H]21` [compound 10, 4-((1R,3r,5S,6r)-6-(3-(6-amino-5-(trifluoromethyl)pyridin-3-yl)-1-isopropyl-1H-pyrazol-5-yl)bicyclo[3.1.0]hexan-3-yl)thio-morpholine 1,1-dioxide], the negative logarithm of the Ki (pKi) is 8.48.

As to `Nc1ncc(-c2cc([C@H]3[C@@H]4C[C@H](N5CCCOCC5)C[C@@H]43)n(CC(F)F)n2)cc1C(F)(F)F` [compound 136, 5-(5-((1R,3r,5S,6r)-3-(1,4-oxazepan-4-yl)bicyclo[3.1.0]hexan-6-yl)-1-(2,2-difluoroethyl)-1H-pyrazol-3-yl)-3-(trifluoromethyl) pyridin-2-amine], the negative logarithm of the Ki (pKi) is 8.15.

With `CC(C)n1nc(-c2cnc(N)c(OC(F)F)c2)cc1[C@H]1[C@@H]2C[C@@H](N3CCN4CCCC4C3)C[C@@H]21` (single isomer, unassigned) [compound 259], the pKi was 9.15.
